Source: ChEMBL document CHEMBL1155005, “Ligands to the (IRAP)/AT4 receptor encompassing a 4-hydroxydiphenylmethane scaffold replacing Tyr2” (Bioorg Med Chem, 2008)
pKi: −log10 of the molar value.

Target: Aminopeptidase N (Homo sapiens, UniProt P15144)
Test: Inhibition of human recombinant APN expressed in HEK293 cells
Assay type: cell-based

Sequence of Aminopeptidase N (P15144 whole entry): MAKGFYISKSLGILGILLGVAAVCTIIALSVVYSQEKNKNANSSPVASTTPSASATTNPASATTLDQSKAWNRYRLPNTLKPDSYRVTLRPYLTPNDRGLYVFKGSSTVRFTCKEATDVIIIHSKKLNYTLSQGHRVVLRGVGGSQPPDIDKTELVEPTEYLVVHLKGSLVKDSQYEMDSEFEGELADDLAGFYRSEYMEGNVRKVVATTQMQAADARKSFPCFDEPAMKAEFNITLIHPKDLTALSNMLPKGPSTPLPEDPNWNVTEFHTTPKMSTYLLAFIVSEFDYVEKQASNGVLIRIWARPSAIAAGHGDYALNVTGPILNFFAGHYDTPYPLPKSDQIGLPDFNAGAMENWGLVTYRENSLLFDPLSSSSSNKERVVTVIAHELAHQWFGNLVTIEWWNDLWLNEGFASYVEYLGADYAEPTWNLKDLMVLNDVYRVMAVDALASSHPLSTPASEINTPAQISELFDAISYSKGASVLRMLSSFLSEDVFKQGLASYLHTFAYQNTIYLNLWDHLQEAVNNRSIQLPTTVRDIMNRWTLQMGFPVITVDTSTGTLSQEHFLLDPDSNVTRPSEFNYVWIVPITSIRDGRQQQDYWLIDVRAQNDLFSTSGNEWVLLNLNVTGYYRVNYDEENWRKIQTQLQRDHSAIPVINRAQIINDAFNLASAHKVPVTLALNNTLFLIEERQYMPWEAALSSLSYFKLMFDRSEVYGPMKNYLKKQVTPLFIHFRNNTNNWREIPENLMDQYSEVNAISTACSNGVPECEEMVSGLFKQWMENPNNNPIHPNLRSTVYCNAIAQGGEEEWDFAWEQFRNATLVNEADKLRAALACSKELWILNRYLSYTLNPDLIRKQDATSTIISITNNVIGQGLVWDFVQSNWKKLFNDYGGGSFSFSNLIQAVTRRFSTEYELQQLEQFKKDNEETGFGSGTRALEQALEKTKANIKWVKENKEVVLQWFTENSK

pKi | Compound
< 4.00 | CC[C@@H](C)[C@H](NC(=O)c1cc(N)cc(Cc2ccc(O)cc2)c1)C(=O)NCc1ccccc1CC(=O)O
< 4.00 | Nc1cc(Cc2ccc(O)cc2)cc(C(=O)NCc2ccccc2CC(=O)O)c1
